Laboratory results taken from ChEMBL document CHEMBL1158870, “Antitumor agents. 180. Chemical Studies and cytotoxic evaluation of cumingianosides and cumindysoside A, antileukemic triterpene glucosides with a 14,18-cycloapotirucallane skeleton” (1997).

What was measured:
MOLT-4 = assay: Cytotoxicity against human MOLT4 cells by SRB assay; type: functional
OVCAR-8 = assay: Cytotoxicity against human OVCAR8 cells by SRB assay; type: functional
SR = assay: Cytotoxicity against human SR cells by SRB assay; type: functional
A549 = assay: Cytotoxicity against human A549 cells by SRB assay; type: functional
NCI-H226 = assay: Cytotoxicity against human NCI-H226 cells by SRB assay; type: functional
BT-549 = assay: Cytotoxicity against human BT549 cells by SRB assay; type: functional
SK-MEL-2 = assay: Cytotoxicity against human SK-MEL-2 cells by SRB assay; type: functional
SK-MEL-28 = assay: Cytotoxicity against human SK-MEL-28 cells by SRB assay; type: functional
[1] = Cytotoxicity against human 786-O cells by SRB assay; type: functional; conditions: 786-0
MDA-MB-435 = assay: Cytotoxicity against human MDA-MB-435 cells by SRB assay; type: functional
A498 = assay: Cytotoxicity against human A498 cells by SRB assay; type: functional
SN12C = assay: Cytotoxicity against human SN12C cells by SRB assay; type: functional
Leukemia cell = assay: Cytotoxicity against human Leukemia cells by SRB assay; type: functional
HCC 2998 = assay: Cytotoxicity against human HCC2998 cells by SRB assay; type: functional
RPMI-8226 = assay: Cytotoxicity against human RPMI8226 cells by SRB assay; type: functional
IGROV-1 = assay: Cytotoxicity against human IGROV1 cells by SRB assay; type: functional
CAKI-1 = assay: Cytotoxicity against human Caki1 cells by SRB assay; type: functional
SF-295 = assay: Cytotoxicity against human SF295 cells by SRB assay; type: functional
NSCLC = assay: Cytotoxicity against human NSCLC cells by SRB assay; type: functional
[2] = Cytotoxicity against human Hs 578T cells by SRB assay; type: functional
HCT-15 = assay: Cytotoxicity against human HCT15 cells by SRB assay; type: functional
U-251 = assay: Cytotoxicity against human U251 cells by SRB assay; type: functional
MDA-N = assay: Cytotoxicity against human MDA-N cells by SRB assay; type: functional
HOP-92 = assay: Cytotoxicity against human HOP92 cells by SRB assay; type: functional
T47D = assay: Cytotoxicity against human T47D cells by SRB assay; type: functional
OVCAR-3 = assay: Cytotoxicity against human OVCAR-3 cells by SRB assay; type: functional
RXF 393 = assay: Cytotoxicity against human RXF393 cells by SRB assay; type: functional
Malme-3M = assay: Cytotoxicity against human MALME-3M cells by SRB assay; type: functional
[3] = Cytotoxicity against human ovarian cancer cells by SRB assay; type: functional; conditions: Cancer cell lines
K562 = assay: Cytotoxicity against human K562 cells by SRB assay; type: functional
LOX IMVI = assay: Cytotoxicity against human LOXIMVI cells by SRB assay; type: functional
HOP-62 = assay: Cytotoxicity against human HOP62 cells by SRB assay; type: functional
NCI-H23 = assay: Cytotoxicity against human NCI-H23 cells by SRB assay; type: functional
NCI-H460 = assay: Cytotoxicity against human NCI-H460 cells by SRB assay; type: functional
M14 = assay: Cytotoxicity against human M14 cells by SRB assay; type: functional
[4] = Cytotoxicity against human melanoma cells by SRB assay; type: functional; conditions: Melanoma cell
CCRF-CEM = assay: Cytotoxicity against human CCRF-CEM cells by SRB assay; type: functional
SK-MEL-5 = assay: Cytotoxicity against human SK-MEL-5 cells by SRB assay; type: functional
[5] = Cytotoxicity against human HL60(TB) cells by SRB assay; type: functional, HL-60(TB); conditions: HL-60
UACC-62 = assay: Cytotoxicity against human UACC62 cells by SRB assay; type: functional
[6] = Cytotoxicity against human CNS cancer cells by SRB assay; type: functional; conditions: Cancer cell lines
SNB-19 = assay: Cytotoxicity against human SNB19 cells by SRB assay; type: functional
[7] = Cytotoxicity against human renal cancer cells by SRB assay; type: functional; conditions: Cancer cell lines
SNB-75 = assay: Cytotoxicity against human SNB75 cells by SRB assay; type: functional
[8] = Cytotoxicity against human breast cancer cells by SRB assay; type: functional; conditions: Cancer cell lines
SF-268 = assay: Cytotoxicity against human SF268 cells by SRB assay; type: functional
OVCAR-4 = assay: Cytotoxicity against human OVCAR4 cells by SRB assay; type: functional
SK-OV-3 = assay: Cytotoxicity against human SKOV3 cells by SRB assay; type: functional
[9] = Cytotoxicity against human prostate cancer cells by SRB assay; type: functional; conditions: Cancer cell lines
NCI-H522 = assay: Cytotoxicity against human NCI-H522 cells by SRB assay; type: functional
PC-3 = assay: Cytotoxicity against human PC3 cells by SRB assay; type: functional
DU-145 = assay: Cytotoxicity against human DU145 cells by SRB assay; type: functional
EKVX = assay: Cytotoxicity against human EKVX cells by SRB assay; type: functional
COLO 205 = assay: Cytotoxicity against human COLO205 cells by SRB assay; type: functional
MCF7 = assay: Cytotoxicity against human MCF7 cells by SRB assay; type: functional
[10] = Cytotoxicity against human MCF7/ADR cells by SRB assay; type: functional; conditions: NCI/ADR-RES
KM12 = assay: Cytotoxicity against human KM12 cells by SRB assay; type: functional
SW-620 = assay: Cytotoxicity against human SW620 cells by SRB assay; type: functional
UO-31 = assay: Cytotoxicity against human UO31 cells by SRB assay; type: functional
[11] = Cytotoxicity against human Colon cancer cells by SRB assay; type: functional; conditions: Cancer cell lines
HCT-116 = assay: Cytotoxicity against human HCT116 cells by SRB assay; type: functional
UACC-257 = assay: Cytotoxicity against human UACC257 cells by SRB assay; type: functional
HT-29 = assay: Cytotoxicity against human HT29 cells by SRB assay; type: functional
MDA-MB-231 = assay: Cytotoxicity against human MDA-MB-231 cells by SRB assay; type: functional
OVCAR-5 = assay: Cytotoxicity against human OVCAR5 cells by SRB assay; type: functional
ACHN = assay: Cytotoxicity against human ACHN cells by SRB assay; type: functional
NCI-H322M = assay: Cytotoxicity against human NCI-H322M cells by SRB assay; type: functional

For `CC(=O)OC[C@H]1O[C@@H](O[C@@H]2C[C@H]3C(C)(C)[C@H](OC(C)=O)CC[C@]3(C)[C@H]3CC[C@@]45C[C@H](O)C[C@H](C)[C@@H]4CC=C5[C@@]32C)[C@H](O)[C@@H](O)[C@@H]1O`, the GI50 (MOLT-4) was 2.14 µM, the GI50 (OVCAR-8) was 4.47 µM and the GI50 (SR) was 1.82 µM. It also gave a GI50 (A549) of 4.79 µM, a GI50 (NCI-H226) of 4.9 µM and a GI50 (BT-549) of 11 µM. The GI50 (SK-MEL-2) was 2.45 µM, the GI50 (SK-MEL-28) was 8.32 µM and the GI50 [1] was 4.37 µM. It also gave a GI50 (MDA-MB-435) of 3.72 µM, a GI50 (A498) of 14.1 µM and a GI50 (SN12C) of 3.98 µM. It also gave a TGI (Leukemia cell) of 7 µM, a GI50 (HCC 2998) of 2.09 µM and a TGI (HCC 2998) of 3.8 µM. The GI50 (RPMI-8226) was 2.82 µM, the GI50 (IGROV-1) was 3.16 µM and the GI50 (CAKI-1) was 9.55 µM. It also gave a GI50 (SF-295) of 3.89 µM, a TGI (NSCLC) of 18.1 µM and a GI50 [2] of 4.07 µM. The GI50 (HCT-15) was 8.91 µM, the TGI (HCT-15) was 22.3 µM and the GI50 (U-251) was 3.39 µM. It also gave a GI50 (MDA-N) of 4.27 µM, a GI50 (HOP-92) of 4.9 µM and a GI50 (T47D) of 4.37 µM. It also gave a GI50 (OVCAR-3) of 3.89 µM, a GI50 (RXF 393) of 2.63 µM and a GI50 (Malme-3M) of 9.33 µM. It also gave a TGI [3] of 13.5 µM, a GI50 (K562) of 2.95 µM and a GI50 (LOX IMVI) of 1.82 µM. The GI50 (HOP-62) was 11.2 µM, the GI50 (NCI-H23) was 3.89 µM and the GI50 (NCI-H460) was 3.31 µM. The GI50 (M14) was 3.89 µM, the TGI [4] was 14.4 µM and the GI50 (CCRF-CEM) was 2.14 µM. It also gave a GI50 (SK-MEL-5) of 3.89 µM, a GI50 [5] of 2.09 µM and a GI50 (UACC-62) of 5.25 µM. For the same compound, the TGI [6] was 15 µM, the GI50 (SNB-19) was 3.89 µM and the TGI [7] was 18.8 µM. For the same compound, the GI50 (SNB-75) was 3.72 µM, the TGI [8] was 17.9 µM and the GI50 (SF-268) was 4.07 µM. It also gave a GI50 (OVCAR-4) of 4.37 µM, a GI50 (SK-OV-3) of 6.03 µM and a TGI [9] of 16.7 µM. For the same compound, the GI50 (NCI-H522) was 3.09 µM, the GI50 (PC-3) was 3.16 µM and the GI50 (DU-145) was 10.5 µM. For the same compound, the GI50 (EKVX) was 7.08 µM, the GI50 (COLO 205) was 1.82 µM and the TGI (COLO 205) was 3.2 µM. For the same compound, the GI50 (MCF7) was 4.47 µM, the GI50 [10] was 15.1 µM and the GI50 (KM12) was 2.4 µM. The TGI (KM12) was 7.6 µM, the GI50 (SW-620) was 4.57 µM and the TGI (SW-620) was 18.1 µM. The GI50 (UO-31) was 14.8 µM, the TGI [11] was 8.8 µM and the GI50 (HCT-116) was 1.78 µM. The TGI (HCT-116) was 3.5 µM, the GI50 (UACC-257) was 3.39 µM and the GI50 (HT-29) was 1.7 µM. The TGI (HT-29) was 3.3 µM, the GI50 (MDA-MB-231) was 2.04 µM and the GI50 (OVCAR-5) was 2.34 µM. For the same compound, the GI50 (ACHN) was 5.13 µM and the GI50 (NCI-H322M) was 6.61 µM.
